Assay results as given in patent US11992517B2, “Compositions and methods for promoting the mineralization of biological tissue” (NEW YORK SOCIETY FOR THE RUPTURED AND CRIPPLED MAINTAINING …, priority 2013, dated 2024).

Legend:
BNP cells = assay: Effect of IL-1β on mineralization, Alizarin Red staining; format: cell-based, bovine; details: IL-1β 0.01 and 2 ng/ml, 7 and 10 days
Method: (§1) Cells from Example 2 were grown in mineralization medium in the presence or absence of a low dose of […] (0.01 ng/ml) or a high dose (2 ng/ml) (R&D Systems). Cells were analyzed by Alizarin Red staining at 7 and 10 days as previously described. RT-PCR analysis of ANK and ENPP was also performed as previously described, using primers specific for ANKH and ENPP1.

ANKH = assay: RT-PCR of ANK after IL-1β treatment; format: cell-based, bovine; details: IL-1β 0.01 and 2 ng/ml; naïve cells and TNAP-infected BNP cells; day 3; FIG. 23
Method: as §1

ENPP1 = assay: RT-PCR of ENPP after IL-1β treatment; format: cell-based, bovine; details: IL-1β 0.01 and 2 ng/ml; naïve cells and TNAP-infected BNP cells; day 3; FIG. 23
Method: as §1

bovine NP cells = assay: Effect of TNF-α on mineralization, Alizarin Red and von Kossa staining; format: cell-based
Method: The cells from Example 2 (TNAP infected and naïve) were grown in high density cultures in a medium comprising DMEM high glucose (4.5 g/L) plus 1% PenStrep, and 10% FBS, and 50 μ/ml ascorbic acid, and 5 mM of β-glycerophosphate (mineralization medium). Some cells were also stimulated with 10 ng/mL of hfTNF-α.
The cells were stained with Alizarin Red and von Kossa stain after 7, 14, and 21 days.

In the case of “IL-1β: interleukin 1β (R&D Systems) added at 0.01 or 2 ng/ml”, the “Alizarin Red staining of NP cells transduced with LacZ” value (BNP cells) is reported as “no observable change”, the “calcium staining with Alizarin Red of TNAP-infected BNP cell cultures” value (BNP cells; mineralization medium, FIGS. 21, 22) is reported as “dose-dependent increase” and the ANK transcripts (ANKH) is reported as “dose-dependent decrease”. The ENPP transcripts (ENPP1) was “dose-dependent decrease”.
For TNF-α, the “mineralization of NP cells stimulated with TNF-α only” value (bovine NP cells; 10 ng/mL TNF-α, cells without TNAP) was “did not show mineralization”, the “staining of TNAP infected cells stimulated with TNF-α” value (bovine NP cells; 10 ng/mL TNF-α, versus unstimulated TNAP infected cells, FIG. 10) was “darker” and the “more Alizarin Red staining than TNAP alone” value (bovine NP cells; TNAP overexpressing cells stimulated with TNF-α, average over three weeks, FIG. 11) was 45%.
